The term inhibition denotes the change of the read-out against control, counted positive when it falls. What is called IC50 is the concentration that inhibits the measured activity by half. Low values mean inhibition by little substance, high ones a need for much substance.

The source made the active and inactive calls. No cut-off for these calls is given here.

In ChEMBL document CHEMBL5052836, “Interleukin-15 activity antagonist peptide” (2019) one finds inhibition and IC50 data, which are given here for 16 compounds.

The species named for one test is Homo sapiens. Nature of the test: Antagonist activity at IL-15Ralpha (unknown origin) assessed as inhibition of IL-15/IL-15Ralpha complex formation at 20 ug/ml using TMB as substrate incubated for 1 hr and measured after 1 hr by ELISA relative to control. As to conditions: filed as antagonist, dose 20.0 µg/ml. A general note: ELISA stands for enzyme-linked immunosorbent assay.

The subject of test [1] is Synovial cell. Nature of the test: Inhibition of IL-15-induced IL-6 secretion in human synovial cells at 50 ug/ml and measured after 48 hrs by ELISA relative to control. The format is functional, cell-based. As to conditions: dose 50.0 µg/ml.
The subject of test [2] is Synovial cell. Nature of the test: Inhibition of IL-15-induced TNF-alpha secretion in human synovial cells at 50 ug/ml and measured after 48 hrs by ELISA relative to control. The test is classed as functional, cell-based. As to conditions: dose 50.0 µg/ml.
The nature of test [3]: Inhibition of cell proliferation in IL-15-induced mouse CTLL-2 cells measured after 72 hrs by MTT assay. As to conditions: CTLL-2, 72 h. The format is functional, cell-based. Background: Formazan colour is commonly taken as a measure of viable cells.

For the compound `CSCC[C@H](NC(=O)[C@@H](C)NC(=O)[C@@H](NC(=O)[C@@H](NC(=O)[C@@H](N)CCCCN)C(C)C)[C@@H](C)O)C(=O)N[C@@H](CCCCN)C(=O)N[C@@H](CS)C(=O)N[C@@H](Cc1ccccc1)C(=O)N[C@@H](CC(C)C)C(=O)N[C@@H](CC(C)C)C(=O)O`, the inhibition in the test filed under Homo sapiens is 92%. The inhibition result in the test with Synovial cell [1] and in the test on Synovial cell [2] was “Active” throughout. In test [3], this compound displayed an IC50 of 28 µM.
On to `CSCC[C@H](NC(=O)[C@H](C)NC(=O)[C@@H](NC(=O)[C@@H](NC(=O)[C@@H](N)CCCCN)C(C)C)[C@@H](C)O)C(=O)N[C@H](CCCCN)C(=O)N[C@@H](CS)C(=O)N[C@@H](Cc1ccccc1)C(=O)N[C@@H](CC(C)C)C(=O)N[C@@H](CC(C)C)C(=O)O`, for which the IC50 in test [3] came out at 168 µM.
Take `CSCC[C@H](NC(=O)[C@@H](C)NC(=O)[C@@H](NC(=O)[C@@H](NC(=O)[C@@H](N)CCCCN)C(C)C)[C@@H](C)O)C(=O)N[C@@H](CCCCN)C(=O)N[C@H](CSSC[C@@H](NC(=O)[C@H](CCCCN)NC(=O)[C@H](CCSC)NC(=O)[C@@H](C)NC(=O)[C@@H](NC(=O)[C@@H](NC(=O)[C@@H](N)CCCCN)C(C)C)[C@@H](C)O)C(=O)N[C@@H](Cc1ccccc1)C(=O)N[C@@H](CC(C)C)C(=O)N[C@@H](CC(C)C)C(=O)O)C(=O)N[C@@H](Cc1ccccc1)C(=O)N[C@@H](CC(C)C)C(=O)N[C@@H](CC(C)C)C(=O)O`: the IC50 in test [3] came out at 56 µM.
With `CSCC[C@H](NC(=O)[C@@H](C)NC(=O)[C@@H](NC(=O)[C@@H](NC(=O)[C@H](N)CCCCN)C(C)C)[C@@H](C)O)C(=O)N[C@@H](CCCCN)C(=O)N[C@@H](CS)C(=O)N[C@@H](Cc1ccccc1)C(=O)N[C@@H](CC(C)C)C(=O)N[C@@H](CC(C)C)C(=O)O`, the inhibition in the test listed under Homo sapiens was 89%. Besides, the inhibition entry in the test on Synovial cell [1] and in the test on Synovial cell [2] was “Active” each time. The compound also showed an IC50 in test [3] of 29 µM.
Consider `CSCC[C@H](NC(=O)[C@@H](C)NC(=O)[C@@H](NC(=O)[C@@H](NC(=O)[C@@H](N)CCCCN)C(C)C)[C@@H](C)O)C(=O)N[C@@H](CCCCN)C(=O)N[C@H](CS)C(=O)N[C@@H](Cc1ccccc1)C(=O)N[C@@H](CC(C)C)C(=O)N[C@@H](CC(C)C)C(=O)O`, for which the IC50 in test [3] came out at 296 µM.
`CSCC[C@H](NC(=O)[C@H](C)NC(=O)[C@@H](NC(=O)[C@@H](NC(=O)[C@@H](N)CCCCN)C(C)C)[C@@H](C)O)C(=O)N[C@@H](CCCCN)C(=O)N[C@@H](CS)C(=O)N[C@@H](Cc1ccccc1)C(=O)N[C@@H](CC(C)C)C(=O)N[C@@H](CC(C)C)C(=O)O`: the inhibition in the test filed under Homo sapiens was 70%. Also, half-maximal inhibition in test [3] (IC50) required 130 µM.
In turn, `CSCC[C@H](NC(=O)[C@H](C)NC(=O)[C@@H](NC(=O)[C@H](NC(=O)[C@@H](N)CCCCN)C(C)C)[C@@H](C)O)C(=O)N[C@@H](CCCCN)C(=O)N[C@@H](CS)C(=O)N[C@@H](Cc1ccccc1)C(=O)N[C@@H](CC(C)C)C(=O)N[C@@H](CC(C)C)C(=O)O` had a concentration for half-maximal inhibition (IC50) in test [3] of 142 µM.
The compound `CSCC[C@H](NC(=O)[C@H](C)NC(=O)[C@@H](NC(=O)[C@@H](NC(=O)[C@@H](N)CCCCN)C(C)C)[C@@H](C)O)C(=O)N[C@@H](CCCCN)C(=O)N[C@@H](CS)C(=O)N[C@@H](Cc1ccccc1)C(=O)N[C@H](CC(C)C)C(=O)N[C@@H](CC(C)C)C(=O)O` displayed an IC50 in test [3] of 134 µM.
Still for that read-out and setting: the figure for `CSCC[C@H](NC(=O)[C@H](C)NC(=O)[C@@H](NC(=O)[C@@H](NC(=O)[C@H](N)CCCCN)C(C)C)[C@@H](C)O)C(=O)N[C@@H](CCCCN)C(=O)N[C@@H](CS)C(=O)N[C@@H](Cc1ccccc1)C(=O)N[C@@H](CC(C)C)C(=O)N[C@@H](CC(C)C)C(=O)O` is 100 µM; for `CSCC[C@@H](NC(=O)[C@H](C)NC(=O)[C@@H](NC(=O)[C@@H](NC(=O)[C@@H](N)CCCCN)C(C)C)[C@@H](C)O)C(=O)N[C@@H](CCCCN)C(=O)N[C@@H](CS)C(=O)N[C@@H](Cc1ccccc1)C(=O)N[C@@H](CC(C)C)C(=O)N[C@@H](CC(C)C)C(=O)O` it is 292 µM.
Turning to `CSCC[C@H](NC(=O)[C@@H](C)NC(=O)[C@@H](NC(=O)[C@@H](NC(=O)[C@H](N)CCCCN)C(C)C)[C@@H](C)O)C(=O)N[C@@H](CCCCN)C(=O)N[C@@H](CSSC[C@H](NC(=O)[C@H](CCCCN)NC(=O)[C@H](CCSC)NC(=O)[C@@H](C)NC(=O)[C@@H](NC(=O)[C@@H](NC(=O)[C@H](N)CCCCN)C(C)C)[C@@H](C)O)C(=O)N[C@@H](Cc1ccccc1)C(=O)N[C@@H](CC(C)C)C(=O)N[C@@H](CC(C)C)C(=O)O)C(=O)N[C@@H](Cc1ccccc1)C(=O)N[C@@H](CC(C)C)C(=O)N[C@@H](CC(C)C)C(=O)O`, in the test filed under Homo sapiens, the inhibition is 92%. The inhibition result with Synovial cell [1] and in the test with Synovial cell [2] was “Active” throughout. The IC50 in test [3] amounted to 12 µM.
In test [3], `CSCC[C@H](NC(=O)[C@H](C)NC(=O)[C@@H](NC(=O)[C@@H](NC(=O)[C@@H](N)CCCCN)C(C)C)[C@@H](C)O)C(=O)N[C@@H](CCCCN)C(=O)N[C@@H](CS)C(=O)N[C@@H](Cc1ccccc1)C(=O)N[C@@H](CC(C)C)C(=O)N[C@H](CC(C)C)C(=O)O` yielded an IC50 of 133 µM.
For `CSCC[C@H](NC(=O)[C@H](C)NC(=O)[C@@H](NC(=O)[C@@H](NC(=O)[C@@H](N)CCCCN)C(C)C)[C@@H](C)O)C(=O)N[C@@H](CCCCN)C(=O)N[C@H](CS)C(=O)N[C@@H](Cc1ccccc1)C(=O)N[C@@H](CC(C)C)C(=O)N[C@@H](CC(C)C)C(=O)O`, in test [3], half-maximal inhibition (IC50) was put at 103 µM.
`CSCC[C@H](NC(=O)[C@H](C)NC(=O)[C@@H](NC(=O)[C@@H](NC(=O)[C@@H](N)CCCCN)C(C)C)[C@@H](C)O)C(=O)N[C@@H](CCCCN)C(=O)N[C@@H](CS)C(=O)N[C@H](Cc1ccccc1)C(=O)N[C@@H](CC(C)C)C(=O)N[C@@H](CC(C)C)C(=O)O` came in with an IC50 in test [3] of 118 µM.
With `CSCC[C@H](NC(=O)[C@@H](C)NC(=O)[C@@H](NC(=O)[C@@H](NC(=O)[C@@H](N)CCCCN)C(C)C)[C@@H](C)O)C(=O)N[C@@H](CCCCN)C(=O)N[C@@H](CSSC[C@H](NC(=O)[C@H](CCCCN)NC(=O)[C@H](CCSC)NC(=O)[C@@H](C)NC(=O)[C@@H](NC(=O)[C@@H](NC(=O)[C@@H](N)CCCCN)C(C)C)[C@@H](C)O)C(=O)N[C@@H](Cc1ccccc1)C(=O)N[C@@H](CC(C)C)C(=O)N[C@@H](CC(C)C)C(=O)O)C(=O)N[C@@H](Cc1ccccc1)C(=O)N[C@@H](CC(C)C)C(=O)N[C@@H](CC(C)C)C(=O)O`, in the test filed under Homo sapiens, the inhibition amounted to 96%. The inhibition entry with Synovial cell [1] and with Synovial cell [2] was “Active” throughout. The IC50 in test [3] was 8 µM.
As for `CSCC[C@H](NC(=O)[C@H](C)NC(=O)[C@H](NC(=O)[C@@H](NC(=O)[C@@H](N)CCCCN)C(C)C)[C@H](C)O)C(=O)N[C@@H](CCCCN)C(=O)N[C@@H](CS)C(=O)N[C@@H](Cc1ccccc1)C(=O)N[C@@H](CC(C)C)C(=O)N[C@@H](CC(C)C)C(=O)O`, 159 µM corresponded to half-maximal inhibition in test [3] (IC50).
